Literature values, collected in publication PMC8152572 (Chemical Science, 2020).

System: scFv-SM3
Conditions: SM3 antibody, comparison of 2a, 2b and 2c

binding to SM3 (in words): worse binding to the naked derivative 2c
Substance: APDTRP [Compound 2c]
